Results from US10183943B2, “Heterocyclic compounds and their use in preventing or treating bacterial infections” (MUTABILIS, priority 2015, dated 2019).

Key:
TEM-1 = target: T1, TEM-1 (Escherichia coli, UniProt P62593); experiment: β-lactamase inhibitory activity, determination of IC50 (nitrocefin hydrolysis); assay type: biochemical
T1 construct: made in house; host or cells: E. coli

SHV-1 = target: T2, SHV-1 (Klebsiella pneumoniae, UniProt P0AD64); experiment: as above; assay type: biochemical
T2 construct: made in house; host or cells: E. coli
T2 sequence (P0AD64 22-286): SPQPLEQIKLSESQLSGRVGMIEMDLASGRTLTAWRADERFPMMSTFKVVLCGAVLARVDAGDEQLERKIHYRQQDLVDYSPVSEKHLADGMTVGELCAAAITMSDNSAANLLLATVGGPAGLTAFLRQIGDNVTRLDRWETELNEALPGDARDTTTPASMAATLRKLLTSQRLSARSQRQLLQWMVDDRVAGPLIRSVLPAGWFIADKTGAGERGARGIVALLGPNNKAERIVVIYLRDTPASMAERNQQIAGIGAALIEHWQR

CTX-M-15 = target: T3, CTX-M-15 (Escherichia coli, UniProt Q9EXV5); experiment: as above; assay type: biochemical; settings: class (A); nitrocefin 200 μM, 30 min pre-incubation; read-out: IC50 β-lactamase CTX-M-15
T3 construct: made in house; host or cells: E. coli
T3 sequence (Q9EXV5 entry or part of it): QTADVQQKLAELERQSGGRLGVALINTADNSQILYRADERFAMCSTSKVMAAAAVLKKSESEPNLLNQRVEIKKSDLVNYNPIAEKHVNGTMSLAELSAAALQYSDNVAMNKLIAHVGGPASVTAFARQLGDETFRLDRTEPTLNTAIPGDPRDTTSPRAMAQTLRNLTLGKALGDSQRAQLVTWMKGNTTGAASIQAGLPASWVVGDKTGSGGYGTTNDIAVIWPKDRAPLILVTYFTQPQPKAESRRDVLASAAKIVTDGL

KPC-2 = target: T4, KPC-2 (Klebsiella pneumoniae, UniProt Q9F663); experiment: as above; assay type: biochemical; settings: class (A); nitrocefin 200 μM, 30 min pre-incubation; read-out: IC50 β-lactamase KPC-2
T4 construct: made in house; host or cells: E. coli
T4 sequence (Q9F663 25-293 limits assumed): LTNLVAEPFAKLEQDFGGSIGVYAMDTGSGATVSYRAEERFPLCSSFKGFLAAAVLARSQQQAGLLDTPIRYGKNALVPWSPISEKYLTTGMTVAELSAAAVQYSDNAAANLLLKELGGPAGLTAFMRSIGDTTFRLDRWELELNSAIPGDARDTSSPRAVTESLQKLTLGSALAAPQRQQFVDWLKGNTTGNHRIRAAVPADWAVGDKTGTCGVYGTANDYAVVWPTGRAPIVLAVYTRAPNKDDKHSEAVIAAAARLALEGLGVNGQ

OXA-1 = target: T5, OXA-1 (Escherichia coli, UniProt P13661); experiment: as above; assay type: biochemical; settings: class (D); nitrocefin 200 μM, 30 min pre-incubation; read-out: IC50 β-lactamase OXA-1
T5 construct: made in house; host or cells: E. coli
T5 sequence (P13661 26-276): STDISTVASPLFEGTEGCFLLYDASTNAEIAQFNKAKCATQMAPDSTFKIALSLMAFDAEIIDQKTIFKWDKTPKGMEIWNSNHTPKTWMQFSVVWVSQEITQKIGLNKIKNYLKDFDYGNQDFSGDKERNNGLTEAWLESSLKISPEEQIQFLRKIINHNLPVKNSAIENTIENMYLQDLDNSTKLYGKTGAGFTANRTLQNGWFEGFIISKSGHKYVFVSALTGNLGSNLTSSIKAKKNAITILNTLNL

OXA-11 = target: T6, OXA-11 (Pseudomonas aeruginosa, UniProt Q06778); experiment: as above; assay type: biochemical
T6 construct: made in house; host or cells: E. coli
T6 sequence (Q06778 21-266): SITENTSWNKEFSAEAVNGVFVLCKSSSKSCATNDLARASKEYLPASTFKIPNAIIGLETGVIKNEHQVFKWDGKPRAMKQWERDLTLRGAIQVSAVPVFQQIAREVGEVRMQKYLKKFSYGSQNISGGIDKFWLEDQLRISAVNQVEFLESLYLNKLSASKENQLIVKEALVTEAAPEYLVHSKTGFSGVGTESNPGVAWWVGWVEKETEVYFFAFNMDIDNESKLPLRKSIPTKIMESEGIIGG

OXA-15 = target: T7, OXA-15 (Pseudomonas aeruginosa, UniProt Q51574); experiment: biochemical
T7 construct: made in house; host or cells: E. coli
T7 sequence (Q51574 22-275): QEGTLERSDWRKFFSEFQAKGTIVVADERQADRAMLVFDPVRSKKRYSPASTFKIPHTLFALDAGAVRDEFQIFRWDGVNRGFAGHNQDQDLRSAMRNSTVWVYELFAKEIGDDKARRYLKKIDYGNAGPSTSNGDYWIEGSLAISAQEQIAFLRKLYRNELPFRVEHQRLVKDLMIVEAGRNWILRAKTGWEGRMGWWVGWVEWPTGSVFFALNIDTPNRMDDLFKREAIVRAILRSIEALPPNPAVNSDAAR

OXA-48 = target: T8, OXA-48 (Klebsiella pneumoniae, UniProt Q6XEC0); experiment: β-lactamase inhibitory activity, determination of IC50 (nitrocefin hydrolysis); assay type: biochemical; settings: class (D); nitrocefin 200 μM, 30 min pre-incubation; read-out: IC50 β-lactamase OXA-48
T8 construct: made in house; host or cells: E. coli
T8 sequence (Q6XEC0 23-265 limits assumed): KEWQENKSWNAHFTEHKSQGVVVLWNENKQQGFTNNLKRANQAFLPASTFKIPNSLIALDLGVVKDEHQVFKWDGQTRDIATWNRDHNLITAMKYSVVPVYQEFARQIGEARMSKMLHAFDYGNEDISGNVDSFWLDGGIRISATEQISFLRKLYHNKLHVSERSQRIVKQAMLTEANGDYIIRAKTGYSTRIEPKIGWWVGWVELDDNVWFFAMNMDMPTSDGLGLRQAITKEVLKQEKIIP

E. cloacae P99 (AmpC) = experiment: MIC of compounds alone, broth microdilution; assay type: cell-based; settings: Enterobacter cloacae; strain P99 (E. cloacae); read-out: MIC compounds of the invention alone
Description: (§1) Method 2: MIC of Compounds and Synergy with Ceftazidime Against Bacterial Isolates (Table 2 and 3)
(§2) Compounds of the present invention were assessed against genotyped bacterial strains alone or in combination with the β-lactam ceftazidime (CAZ). In the assays, MICs of said compounds, or of ceftazidime at fixed concentrations of said compounds were determined by the broth microdilution method according to the Clinical Laboratory Standards Institute (CLSI-M7-A7). Briefly, compounds alone according to the invention were prepared in DMSO and spotted (2 μL each) on sterile polystyrene plates (Corning, 3788). Compounds and ceftazidime dilutions were prepared in DMSO and spotted (1 μL each) on sterile polystyrene plates (Corning, 3788). Log phase bacterial suspensions were adjusted to a final density of 5×10^5 cfu/mL in cation-adjusted Mueller-Hinton broth (Becton-Dickinson) and added to each well (98 μL). Microplates were incubated for 16-20 h at 35° C. in ambient air. The MIC of the compounds was defined as the lowest concentration of said compounds that prevented bacterial growth as read by visual inspection. The MIC of ceftazidime at each compound concentration was defined as the lowest concentration of ceftazidime that prevented bacterial growth as read by visual inspection.

[1] = test system: E. coli 131119 (TEM-1, OXA-48); experiment: MIC of compounds alone, broth microdilution; assay type: cell-based; settings: Escherichia coli; strain 131119 (E. coli); read-out: MIC compounds of the invention alone
Description: as §1, §2

[2] = test system: E. coli 190317 (TEM-1, SHV-12, CTX-M-15, OXA-1); experiment: MIC of compounds alone, broth microdilution; assay type: cell-based; settings: Escherichia coli, read-out: MIC compounds of the invention alone
Description: as §1, §2

E. coli RGN238 (OXA-1) = experiment: MIC of compounds alone, broth microdilution; assay type: cell-based; settings: Escherichia coli; strain RGN238 (E. coli); read-out: MIC compounds of the invention alone
Description: as §1, §2

[3] = test system: K. pneumoniae 6299 (TEM-1, SHV-11, OXA-163); experiment: MIC of compounds alone, broth microdilution; assay type: cell-based; settings: Klebsiella pneumoniae; strain 6299 (K. pneumoniae); read-out: MIC compounds of the invention alone
Description: as §1, §2

[4] = test system: K. pneumoniae BAA-1898 (TEM-1, SHV-11, SHV-12, KPC-2); experiment: MIC of compounds alone, broth microdilution; assay type: cell-based; settings: Klebsiella pneumoniae, BAA1898; strain BAA-1898 (K. pneumoniae); read-out: MIC compounds of the invention alone
Description: as §1, §2

[5] = test system: P. aeruginosa CIP107051 (TEM-24); experiment: MIC of compounds alone, broth microdilution; assay type: cell-based; settings: Pseudomonas aeruginosa; strain CIP107051 (P. aeruginosa); read-out: MIC compounds of the invention alone
Description: as §1, §2

AmpC (P99) = AmpC (P99) (Enterobacter cloacae, UniProt P05364); experiment: β-lactamase inhibitory activity, determination of IC50 (nitrocefin hydrolysis)
Chain of AmpC (P99) (P05364 21-381): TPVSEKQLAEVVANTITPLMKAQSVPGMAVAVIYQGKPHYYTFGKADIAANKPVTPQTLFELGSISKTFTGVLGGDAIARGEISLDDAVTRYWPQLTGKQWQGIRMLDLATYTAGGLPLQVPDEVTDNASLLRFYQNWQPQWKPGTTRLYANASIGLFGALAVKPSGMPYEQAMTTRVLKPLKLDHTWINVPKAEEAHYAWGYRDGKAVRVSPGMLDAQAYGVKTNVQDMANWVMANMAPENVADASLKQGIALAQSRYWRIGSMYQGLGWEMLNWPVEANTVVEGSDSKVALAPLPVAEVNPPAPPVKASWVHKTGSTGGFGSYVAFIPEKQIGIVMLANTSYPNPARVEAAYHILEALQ

AmpC P. aeruginosa = AmpC P. aeruginosa (Pseudomonas aeruginosa, UniProt P24735); experiment: as above
Chain of AmpC P. aeruginosa (P24735 27-397): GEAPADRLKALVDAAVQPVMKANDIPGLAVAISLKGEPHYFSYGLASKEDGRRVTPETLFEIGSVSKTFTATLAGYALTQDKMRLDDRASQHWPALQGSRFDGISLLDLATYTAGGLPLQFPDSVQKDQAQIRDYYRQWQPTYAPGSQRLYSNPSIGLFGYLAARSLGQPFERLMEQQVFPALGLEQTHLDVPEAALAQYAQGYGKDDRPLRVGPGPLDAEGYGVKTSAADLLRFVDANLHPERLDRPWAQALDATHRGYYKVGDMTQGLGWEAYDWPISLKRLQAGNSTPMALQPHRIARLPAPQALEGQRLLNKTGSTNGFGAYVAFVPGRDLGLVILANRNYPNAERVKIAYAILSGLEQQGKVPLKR

T1 sequence (P62593 24-286 limits assumed): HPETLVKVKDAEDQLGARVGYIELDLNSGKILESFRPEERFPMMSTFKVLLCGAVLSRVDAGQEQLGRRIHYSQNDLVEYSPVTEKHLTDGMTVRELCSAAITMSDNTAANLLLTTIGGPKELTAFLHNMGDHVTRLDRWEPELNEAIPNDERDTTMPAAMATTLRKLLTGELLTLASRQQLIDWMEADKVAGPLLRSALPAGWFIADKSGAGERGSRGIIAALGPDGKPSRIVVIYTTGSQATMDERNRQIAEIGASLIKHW

SMILES	IC50 (TEM-1)	IC50 (SHV-1)	IC50 (CTX-M-15)	IC50 (KPC-2)	IC50 (OXA-1)	IC50 (OXA-11)	IC50 (OXA-15)	IC50 (OXA-48)	MIC (E. cloacae P99 (AmpC))	MIC [1]	MIC [2]	MIC (E. coli RGN238 (OXA-1))	MIC [3]	MIC [4]	MIC [5]	IC50 (AmpC (P99))	IC50 (AmpC P. aeruginosa)
Cn1nc(C2=CCN3CC2N(OS(=O)(=O)[O-])C3=O)ccc1=O.[Na+] (stereo not shown) [Example 17, Sodium [4-(1-methyl-6-oxo-pyridazin-3-yl)-7-oxo-1,6-diazabicyclo[3.2.1]oct-3-en-6-yl] sulfate]	1.2 nM	2.8 nM	5.7 nM	130 nM	330 nM	1400 nM	57 nM	3.9 nM	16 µg/mL	16 µg/mL	4 µg/mL	32 µg/mL	> 32 µg/mL	> 32 µg/mL	> 32 µg/mL	2300 nM	910 nM
Cn1c(C2=CCN3CC2N(OS(=O)(=O)[O-])C3=O)cccc1=O.[Na+] (stereo not shown) [Example 18, Sodium [4-(N-methyl-6-oxo-2-pyridyl)-7-oxo-1,6-diazabicyclo[3.2.1]oct-3-en-6-yl] sulfate]	2.7 nM	11 nM	17 nM	1800 nM	35 nM	540 nM	14 nM	20 nM	16 µg/mL	> 32 µg/mL	> 32 µg/mL	> 32 µg/mL	> 32 µg/mL	> 32 µg/mL	> 32 µg/mL	230 nM	2700 nM
Cn1cnc(C2=CCN3CC2N(OS(=O)(=O)[O-])C3=O)cc1=O.[Na+] (stereo not shown) [Example 20, Sodium [4-(N-methyl-6-oxo-pyrimidin-4-yl)-7-oxo-1,6-diazabicyclo[3.2.1]oct-3-en-6-yl] sulfate]	1 nM	6.7 nM	3.5 nM	87 nM	1900 nM	430 nM	94 nM	2.2 nM	32 µg/mL	32 µg/mL	8 µg/mL	> 32 µg/mL	> 32 µg/mL	> 32 µg/mL	> 32 µg/mL	1900 nM	3200 nM
Cn1cc(C2=CCN3CC2N(OS(=O)(=O)[O-])C3=O)c(=O)n(C)c1=O.[Na+] (stereo not shown) [Example 23, Sodium [4-(1,3-dimethyluracil-5-yl)-7-oxo-1,6-diazabicyclo[3.2.1]oct-3-en-6-yl] sulfate]	1.5 nM	3.1 nM	12 nM	97 nM	870 nM	2200 nM	110 nM	4.8 nM	> 32 µg/mL	32 µg/mL	> 32 µg/mL	> 32 µg/mL	> 32 µg/mL	> 32 µg/mL	> 32 µg/mL	580 nM	1600 nM
COc1ncc(C2=CCN3CC2N(OS(=O)(=O)[O-])C3=O)cn1.[Na+] (stereo not shown) [Example 24, Sodium [4-(2-methoxypyrimidin-5-yl)-7-oxo-1,6-diazabicyclo[3.2.1]oct-3-en-6-yl] sulfate]	12 nM	20 nM	14 nM	160 nM	380 nM	1200 nM	48 nM	3.6 nM	> 32 µg/mL	> 32 µg/mL	16 µg/mL	> 32 µg/mL	> 32 µg/mL	> 32 µg/mL	> 32 µg/mL	1100 nM	1400 nM
